Results: PMC4433340 (PLoS Neglected Tropical Diseases, 2015)

Test system: E-selectin, ICAM-1 and VCAM-1 expression on T. cruzi-infected EA.hy926 and HUVEC cells
Experiment: Endothelial cell adhesion molecule surface expression by flow cytometry / immunofluorescence
Format: cell-based, human
Settings: 5 μM simvastatin or 20 μM benznidazole for 24 hours before 16 hours T. cruzi infection (MOI 10); EA.hy926 and HUVEC
Experimental: Then, cells were infected with trypomastigotes at a MOI of 10 and incubated for 16 hours. Cells were detached with 1X EDTA-PBS at 0.5 mM. The harvested cells were washed with cold PBS and centrifuged at 800 x g for 5 minutes. Then, cells were washed with flow cytometry buffer three times. 100 μL of cell suspensions were incubated for 45 min at 4°C in the dark with mouse monoclonal anti- human E-selectin (5 μL undiluted), ICAM-1(3 μL undiluted), and VCAM-1 (1 μL undiluted) that were conjugated with PE, FITC and APC, respectively (BioLegend, USA). Cell suspensions were analyzed by flow cytometry using a FACSAria-III flow cytometer (BD Biosciences, USA). A homogeneous cell population was selected by size vs. granularity in log scale for these two conditions.
2x10^4 EA.hy926 cells/slide were seeded in Lab-Tek II Chamber Slide^TM (ThermoScientific, USA) and allowed to adhere overnight. […] After 16 hours of infection, cells were fixed in 4% formaldehyde–0.1 M phosphate buffer (pH 7.3) for 10 min. Cells were blocked with 3% bovine serum albumin for 1 hour. Then, cells were incubated with monoclonal antibodies against E-selectin (1:100), VCAM-1 (1:250) and ICAM-1 (1:100) (from Abcam, UK) overnight at 4°C. The samples were washed with PBS and incubated with anti-rabbit IgG that had been conjugated with fluorescein (1:100) from Sigma-Aldrich for 1 h. Finally, nuclei were stained with DAPI for 5 minutes and mounted with Dako Fluorescence Mounting (Dako, USA). The cells were photographed using a Nikon Eclipse 400 fluorescence microscope (Nikon, Japan), and images were analyzed by mean intensity using ImageJ software (ImageJ 1.47v).

O=C(Cn1ccnc1[N+](=O)[O-])NCc1ccccc1 [Benznidazole]
E-selectin, ICAM-1 and VCAM-1 surface expression: prevent cell adhesion molecule expression
